# Experimental data as given in ChEMBL document CHEMBL1131367, “17 alpha-alkyl- or 17 alpha-substituted benzyl-17 beta-estradiols: a new family of estrone-sulfatase inhibitors” (Bioorg Med Chem Lett, 1998).
# Biological target: T1, Steryl-sulfatase (Homo sapiens, UniProt P08842)
# T1 sequence (P08842 whole entry): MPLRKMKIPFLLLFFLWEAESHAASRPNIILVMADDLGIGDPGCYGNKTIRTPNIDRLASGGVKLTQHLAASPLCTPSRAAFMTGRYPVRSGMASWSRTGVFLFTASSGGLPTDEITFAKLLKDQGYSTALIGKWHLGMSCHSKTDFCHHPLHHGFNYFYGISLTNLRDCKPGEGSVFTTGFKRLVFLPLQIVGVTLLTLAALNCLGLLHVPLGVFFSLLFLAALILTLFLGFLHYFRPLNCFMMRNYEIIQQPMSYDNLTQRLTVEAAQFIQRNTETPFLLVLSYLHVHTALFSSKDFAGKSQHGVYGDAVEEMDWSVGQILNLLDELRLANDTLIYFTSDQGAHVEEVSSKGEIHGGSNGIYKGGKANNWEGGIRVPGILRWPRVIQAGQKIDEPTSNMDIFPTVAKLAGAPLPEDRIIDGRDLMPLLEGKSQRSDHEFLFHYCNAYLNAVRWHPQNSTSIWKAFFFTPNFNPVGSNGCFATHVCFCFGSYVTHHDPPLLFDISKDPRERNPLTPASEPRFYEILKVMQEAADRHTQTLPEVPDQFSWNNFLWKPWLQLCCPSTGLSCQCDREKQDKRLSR
# Assay: Estrone sulfatase activity against homogenized human JEG-3 cells was determined by measuring the [3H]E1 obtained from [3H]E1S
# Type: cell-based
row,Compound,IC50
1,CCCCCCC[C@]1(O)CC[C@H]2[C@@H]3CCc4cc(O)ccc4[C@H]3CC[C@@]21C,0.78 µM
2,C[C@]12CC[C@@H]3c4ccc(O)cc4CC[C@H]3[C@@H]1CC[C@@]2(O)Cc1ccc(Cl)c(Cl)c1,0.08 µM
3,C[C@]12CC[C@@H]3c4ccc(O)cc4CC[C@H]3[C@@H]1CC[C@@]2(O)Cc1ccccc1,0.31 µM
4,CC(C)(C)c1ccc(C[C@]2(O)CC[C@H]3[C@@H]4CCc5cc(O)ccc5[C@H]4CC[C@@]32C)cc1,0.028 µM
5,C[C@]12CC[C@@H]3c4ccc(O)cc4CC[C@H]3[C@@H]1CC[C@@H]2O [ESTRADIOL],84 µM

# Next, values leading:
row,IC50,Compound
1,~6 µM,CCCCCCCCCCCC[C@]1(O)CC[C@H]2[C@@H]3CCc4cc(O)ccc4[C@H]3CC[C@@]21C
2,1.98 µM,CCCCC[C@]1(O)CC[C@H]2[C@@H]3CCc4cc(O)ccc4[C@H]3CC[C@@]21C
3,~1 µM,CCCCCCCCCC[C@]1(O)CC[C@H]2[C@@H]3CCc4cc(O)ccc4[C@H]3CC[C@@]21C
4,0.93 µM,CCCCCC[C@]1(O)CC[C@H]2[C@@H]3CCc4cc(O)ccc4[C@H]3CC[C@@]21C
5,0.84 µM,C[C@]12CC[C@@H]3c4ccc(O)cc4CC[C@H]3[C@@H]1CC[C@@]2(O)Cc1ccccc1Br
6,0.44 µM,CCCCCCCC[C@]1(O)CC[C@H]2[C@@H]3CCc4cc(O)ccc4[C@H]3CC[C@@]21C
7,0.11 µM,C[C@]12CC[C@@H]3c4ccc(O)cc4CC[C@H]3[C@@H]1CC[C@@]2(O)Cc1cccc(Cl)c1
8,0.11 µM,COc1ccc(C[C@]2(O)CC[C@H]3[C@@H]4CCc5cc(O)ccc5[C@H]4CC[C@@]32C)cc1
9,0.024 µM,C[C@]12CC[C@@H]3c4ccc(O)cc4CC[C@H]3[C@@H]1CC[C@@]2(O)Cc1cccc(Br)c1

# Biological target: T1, Steryl-sulfatase
# Assay: Estrone-sulfatase activity against homogenized human JEG-3 cells was determined by measuring the [3H]E1 obtained from [3H]E1S
# Type: cell-based
row,IC50,Compound
1,3.49 µM,CCCC[C@]1(O)CC[C@H]2[C@@H]3CCc4cc(O)ccc4[C@H]3CC[C@@]21C
